Reference: patent US10450327B2, “Epidithiodioxopiperazine compound or its derivatives, and the use thereof” (priority 2011, dated 2019)

Experiments:
PrxII knocked down HAECs = assay: Intracellular hydrogen peroxide (DCF fluorescence), PrxII knocked down HAECs; type: cell-based, human
Method: First, the ability of GT to eliminate intracellular hydrogen peroxide in PrxII knocked down HASMCs and HAECs was tested. The cellular hydrogen peroxide production was monitored using an oxidant-sensitive fluorescence dye (2′,7′-dihydro-chlorofluorescein diacetate, H2DCF-DA).

[1] = system: balloon-injured rat carotid artery; assay: Balloon-injury model of rat carotid artery; type: in vivo
Method: Animal experiments were performed in compliance with the guidelines of Institutional Animal Care and Use Committee (IACUC) of the Ewha Womans University. Balloon injury was created using an infiltrated 2 F Fogarty balloon catheter in the left common carotid artery as follows: after the ten-week-old male Sprague-Dawley rats were anaesthetized by isoflurane gas (N2O:O2/70%:30%) inhalation, the left external carotid artery was exposed, and its branches were electrocoagulated. A catheter was pushed 1 cm in through the transverse arteriotomy of the external carotid artery, and the endothelial denudation was achieved by three passes along the common carotid artery. After the catheter was removed, the punched area was sealed and the clapped common carotid artery was opened for resuming the blood flow. Unless otherwise stated, the rats were recovered in a cage for 10 days, and subjected to histological and immunological analyses.
Rats were anesthetized, and the common carotid artery was excised after transcardiac perfusion-fixation with a heparinized saline solution containing 3.7% formaldehyde. The vessels were paraffin embedded and sectioned using a rotary microtome (Leica RM2255). Two serial tissue sections (4 μm in thickness) were obtained from the middle area of common carotid arteries, and stained with haematoxylin and eosin (HE). The luminal, internal elastic laminal, and external elastic laminal areas were measured using NIH Image v1.62. The intimal and medial areas were determined by subtracting the luminal area from the internal elastic area and subtracting the internal elastic area from the external elastic area. The values from the two serial sections for each rat were averaged for analysis.
For the in vivo injection of siRNA, a siRNA mixture specific to rat PrxII (200 nM) was premixed with a siPORT™ NeoFX™ reagent according to the instructions of the manufacturer (Ambion). Immediately after the balloon injury, the siRNA-injected mixture (200 μL) was injected through a catheter after briefly washed with Opti-MEM. After the incubation for 15 minutes, the blood flow was resumed. A siGLO-Red (Dharmacon), which is fluorescent dye-conjugated control siRNA, was used for optimizing in vivo injection efficiency. Similarly, the ETP compound (200 nM in DMSO) was injected through a catheter and incubated for 30 minutes.
Immunohistochemistry for the overoxidized 2-Cys Prxs was performed on the paraffin sections using an anti-Prx-SO2/3 antibody (1:1000 dilution). Briefly, the sections were de-waxed in xylene and rehydrated in ethanol, and subsequently the antigen retrieval was performed by boiling in a citric buffer solution (pH 6.0). After that, the sections were incubated with a primary antibody for 48 hours at 4° C. After washing three times with a phosphatebuffered saline solution, the sections were incubated with a peroxidase-conjugated secondary antibody and stained with a 3′,3′-diaminobenzidine (DAB) substrate solution. For negative staining, the Prx-502/3 antibody was blocked with the corresponding antigenic peptide (DFTFVC(SO2/3)PTEI). For indirect immunofluorescence staining, the paraffin sections were blocked with 5% normal rabbit serum (Vector Laboratories) in PBST (a PBS solution of 0.3% Triton X-100) for 1 hour at room temperature. The sections were then incubated overnight at 4° C. with the […] against rat smooth muscle α-actin (1:300 dilution) and rat CD31 (PECAM-1, 1:200 dilution). The nuclei were labeled with DAPI. After several PBST washes, the samples were incubated for 2 hours at room temperature with Alexa Fluor 568-conjugated donkey anti-mouse and Alexa Fluor 488-conjugated donkey anti-rabbit IgG antibodies. The fluorescence images were recorded on three random fields per tissue section at a screen magnification of 100× using a LSM 510 Meta confocal microscope equipped with argon and helium-neon lasers.
The paraffin sections were incubated for 10 minutes in PBS containing 0.1% Triton X-100. […]

[2] = system: PDGFRβ, PLCγ1, VEGFR2 and ERK; assay: PDGF and VEGF signaling in vascular cells from PrxII−/− mouse; type: cell-based; settings: cells separated from PrxII−/− mouse, PDGF-BB or VEGF-A 10 minutes
Method: Aortic vascular smooth muscle (A) and endothelial cells (B) were separated from a normal mouse and a PrxII−/− mouse, and cultured, and then treated with PDGF-BB and VEGF-A for 10 minutes each after either treating with GT or no treating. The activation of PDGFRβ, PLCγ1, VEGFR2 and ERK was analyzed using a phosphorylation-specific binding antibody for each protein.

SK-MEL-5 (SK5) cells = assay: Melanoma proliferation and migration assay, SK5; type: cell-based, human; settings: 100 nM, 1 hour pretreatment
Method: (§1) The extent of cell proliferation was measured using a WST-1 cell proliferation assay kit (Roche Diagnostics, USA) according to the protocol of the manufacturer. The number of cells was expressed as an absorbance value at 450 nm averaged from 3 wells after subtracting the turbidity at 600 nm. The chemotactic transmigration assay was performed in a 24-well Transwell culture chamber (Costar; polycarbonate membrane insert with 8-μm pore size). The bottom of the insert was coated with gelatin B (1 mg/ml) and air-dried for 1 hour. Retroviruses or transfection complexes were treated to melanoma cells (6×10^3). After 24 hours, the infected or transfected melanoma cells were serum-starved for 18 hours. A 20% FBS solution was added to bottom chambers including a basal medium containing 0.5% BSA. The upper chamber wells were each filled with a basal medium including 0.5% BSA. The Transwell chamber was incubated for 12 hours in a 37° C./5% CO2 incubator. After the incubation, the non-migrating cells at the top of the filter were removed. The cells that migrated onto the bottom of filter were fixed and stained with 0.6% hematoxylin and 0.5% eosin. The stained cells were photographed and counted. The number of migrating cells was averaged from 3 wells.

SK-MEL-28 (SK28) cells = assay: Melanoma proliferation and migration assay, SK28; type: cell-based, human; settings: 100 nM, 1 hour pretreatment
Method: as §1, with “wells. […]” for “wells.”

B16F10 melanoma cells = assay: Metastasis of B16F10 melanoma cells to lung in mouse; type: in vivo
Method: After B16F10 cells were temporarily transfected with PrxII siRNA for 24 hours and trypsinized, the cells were resuspended in a Hank's balanced salt solution (HBSS). The cell suspension was injected by intravenous injection to a C57/BL6 mouse (1×10^6 cells per mouse). The mouse was sacrified after 10 days, and the lung was removed after transcardia perfusion-fixation with a heparinized saline solution including 3.7% formaldehyde. The removed lung was paraffin embedded and sectioned using a rotary microtome (Leica RM2255). Two serial tissue sections (4 μm in thickness) were stained with haematoxylin and eosin. The melanoma tumor nodules metastasized from the surface of the lung and the HE-stained tissue sections were counted. In order to verify the effects of gliotoxin (GT), chaetocin and chetomin, the melanoma cells were intravenously injected to the C57/BL6 mouse, and then gliotoxin (300 mg/kg) was intraperitoneally injected for 5 times over 10 days.

SMILES: CN1C(=O)[C@]23CC4=CC=C[C@H](O)[C@H]4N2C(=O)[C@@]1(CO)SS3 [gliotoxin]
- basal level of intracellular hydrogen peroxide enhanced by PrxII knockdown (PrxII knocked down HAECs): completely eliminated
- endothelial repair / reendothelialization (CD31 immunofluorescence) ([1]; local administration after balloon injury): endothelium monolayer in contact with lumen was formed
- intimal hyperplasia (ratio of intima versus media, HE staining) ([1]; local administration to the lumen through catheter, 30 minutes, ETP derivatives 200 nM, 10 days recovery): notably suppressed
- cell death by TUNEL staining ([1]; nanomolar range, local administration): did not induce cell death
- luminal surface endothelial cells by scanning electron microscopy ([1]; rat, in vivo): spread and formed a uniform layer with tight junction
- overoxidation of 2-Cys-Prx (Prx-SO2/3 immunohistochemistry) versus control group ([1]; rat, in vivo): no significant differences
- effects on PDGF signaling in VSMC and VEGF signaling in VEC [2]: opposed regulatory effects
- proliferation and migration responding to serum stimulation, SK5 (SK-MEL-5 (SK5) cells): reduced
- proliferation and migration responding to serum stimulation, SK28 (SK-MEL-28 (SK28) cells): reduced
- metastasis of B16F10 melanoma cells to lung (tumor nodules) (B16F10 melanoma cells; i.p. 5 times over 10 days after i.v. injection of B16F10 cells): significantly reduced
- metastasis of PrxII-knocked down B16F10 to lung (B16F10 melanoma cells; mPrx2-1 siRNA-transfected cells, i.p. 5 times over 10 days): more significantly reduced
